Assay results: PMC10605449 (Biosensors, 2023)
Values belong to the molecule of their own block, whether it stands above or below them.

Tests used:
[1] = target: T1, YAP(2-268):TEAD1(209-436) interaction (Homo sapiens, UniProt P28347); experiment: SPR, inhibition of YAP:TEAD1 interaction: TEAD1 pre-incubated with binder, injected over cellular biotinylated YAP(2-268); type: binding; conditions: for Effect on YAP(2-268):TEAD1 interaction compared with TEAD1 apo-form: TEAD1 incubated with saturating concentration (30 µM) of binder
T1 construct: made in house; host or cells: YAP: E. coli BL21 Star (DE3) pRARE2 lysate
T1 sequence (P28347 209-426): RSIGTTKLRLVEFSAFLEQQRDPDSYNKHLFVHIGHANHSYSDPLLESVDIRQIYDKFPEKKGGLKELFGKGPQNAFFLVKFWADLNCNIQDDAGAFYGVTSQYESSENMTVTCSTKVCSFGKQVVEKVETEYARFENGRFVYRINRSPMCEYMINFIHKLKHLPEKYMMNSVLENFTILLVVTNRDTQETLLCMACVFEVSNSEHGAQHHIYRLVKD
Text: The cellular biotinylated YAP(2-268) protein, as well as the biotinylated YAP(61-100) peptide, were immobilized using a similar approach as that described previously. However, neutravidin protein (ThermoFisher Scientific) was used as the selected pre-coated surface on a CM5 Series S sensor chip instead of streptavidin. […] The remaining activated groups were then blocked with ethanolamine-HCl. […] The interaction analysis cycles consisted of 120 s of sample injection followed by 280 s of running buffer flow. The experiment was performed at 15 °C. To ensure that the surface integrity of the cellular biotinylated YAP remained intact and that the interaction kinetic profile with TEAD1 was restored, an additional injection of TEAD1 apo-form was performed at the end of each experiment. All sensorgrams were processed by first subtracting the binding response recorded from the control surface (reference spot, where only the avidin protein is immobilized), followed by subtraction of the buffer blank injection from the reaction spot. All datasets were fitted to a simple 1:1 Langmuir interaction model to determine the kinetic rate constants, and the interaction affinity was additionally calculated at a steady state when applicable. In cases where small molecules were present during the assay, a DMSO solvent correction (1–3%) was applied to account for variations in bulk signal and to achieve high-quality data. The experiments with immobilized purified proteins were performed on a Biacore 4000 (Cytiva, Uppsala, Sweden), and the interaction was evaluated using the provided Biacore 4000 evaluation software, while the experiments with soluble cell lysates on a Biacore T200 (Cytiva, Uppsala, Sweden) used the provided Biacore T200 evaluation software. All SPR experiments were performed in duplicate.

[2] = target: T2, DKC1(1-514) (Homo sapiens, UniProt O60832); experiment: SPR Extract2Chip, cellular biotinylated DKC1(1-514), RuvBL1/RuvBL2 injected; type: binding
T2 construct: The cellular biotinylated His6-DKC1(1-514)-AviTag was immobilized using the approach described in Section 2.5.2; made in house; host or cells: E. coli BL21(DE3), co-expressed with BirA; soluble lysate used without purification
T2 sequence (O60832 1-514): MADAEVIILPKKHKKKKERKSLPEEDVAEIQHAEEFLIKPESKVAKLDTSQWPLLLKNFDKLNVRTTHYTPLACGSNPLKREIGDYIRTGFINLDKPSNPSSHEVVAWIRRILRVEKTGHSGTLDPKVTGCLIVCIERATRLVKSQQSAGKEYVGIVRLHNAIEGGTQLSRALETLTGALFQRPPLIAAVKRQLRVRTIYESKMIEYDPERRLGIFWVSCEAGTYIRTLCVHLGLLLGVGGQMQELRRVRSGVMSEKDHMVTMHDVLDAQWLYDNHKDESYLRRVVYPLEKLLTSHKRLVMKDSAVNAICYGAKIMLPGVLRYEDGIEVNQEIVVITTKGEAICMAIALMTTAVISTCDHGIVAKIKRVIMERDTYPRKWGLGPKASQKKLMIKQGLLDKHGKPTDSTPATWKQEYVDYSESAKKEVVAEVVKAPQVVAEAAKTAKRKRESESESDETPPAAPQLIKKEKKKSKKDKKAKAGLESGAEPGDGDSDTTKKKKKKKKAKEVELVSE
Procedure: The cellular biotinylation of the DKC1(1-514) protein followed the same approach as that described for CypD. DKC1(1-514) was expressed in BL21(DE3) in LB media and induced with 500 µM IPTG overnight at 18 °C. The PD-10 Desalting column was equilibrated with buffer U (50 mM HEPES pH 6.5, 750 mM KCl, 0.5 mM EDTA, and 0.5 mM TCEP).
The cellular biotinylated His6-DKC1(1-514)-AviTag was immobilized using the approach described in Section 2.5.2. The soluble cell lysate was diluted to 15 µg/mL and coupled with 150 and 300 s injection times to reach 130 to 175 RU. […]
All sensorgrams were processed by first subtracting the binding response recorded from the control surface (reference spot, where only the avidin protein is immobilized), followed by subtraction of the buffer blank injection from the reaction spot. All datasets were fitted to a simple 1:1 Langmuir interaction model to determine the kinetic rate constants, and the interaction affinity was additionally calculated at a steady state when applicable. […] The experiments with immobilized purified proteins were performed on a Biacore 4000 (Cytiva, Uppsala, Sweden), and the interaction was evaluated using the provided Biacore 4000 evaluation software, while the experiments with soluble cell lysates on a Biacore T200 (Cytiva, Uppsala, Sweden) used the provided Biacore T200 evaluation software. […]

[3] = target: T3, TEAD1 (Homo sapiens, UniProt P28347); experiment: Binary complex formation of TEAD1 to TEAD binders, biochemical assays; conditions: data not shown
T3 sequence (P28347 whole entry): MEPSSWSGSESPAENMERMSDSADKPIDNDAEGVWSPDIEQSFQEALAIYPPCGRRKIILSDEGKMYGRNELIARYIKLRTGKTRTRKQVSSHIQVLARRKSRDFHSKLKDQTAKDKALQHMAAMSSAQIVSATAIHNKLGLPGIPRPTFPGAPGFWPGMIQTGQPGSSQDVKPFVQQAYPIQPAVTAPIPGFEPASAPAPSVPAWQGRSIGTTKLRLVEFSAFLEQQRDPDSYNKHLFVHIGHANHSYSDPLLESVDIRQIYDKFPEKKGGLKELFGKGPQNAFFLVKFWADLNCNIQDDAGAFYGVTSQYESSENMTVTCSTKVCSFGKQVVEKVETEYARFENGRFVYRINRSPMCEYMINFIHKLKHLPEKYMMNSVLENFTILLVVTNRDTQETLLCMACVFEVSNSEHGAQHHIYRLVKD

[4] = target: T3, TEAD1; experiment: Binary complex formation of TEAD1 to TEAD binders, SPR; type: binding; conditions: data not shown
[5] = target: T4, His6-RuvBL1(1-456)/RuvBL2(1-463) (UniProt Q9Y265 1-456; Q9Y230 1-463); experiment: SPR; cellular biotinylated His6-DKC1(1-514)-AviTag captured from soluble cell lysate (130 to 175 RU) on neutravidin-coated CM5 chip; RuvBL1/RuvBL2 complexes injected, 10 concentrations, 2-fold series from 0.05 µM; 20 mM NaKPi pH 7.5, 150 mM NaCl, 5 mM MgCl2, 1 mM DTT, 0.05% Tween 20; 25 °C; 1:1 Langmuir fit; conditions: one partner purified
T4 construct: RuvBL1, residues 1-456; RuvBL2, residues 1-463; also called RuvBL1/RuvBL2; AAA+ ATPases RuvBL1/RuvBL2; not shown: His6, N-terminal, kept
T4 sequence (Q9Y265 whole entry, chain 1 of 2, the tested form may be a part): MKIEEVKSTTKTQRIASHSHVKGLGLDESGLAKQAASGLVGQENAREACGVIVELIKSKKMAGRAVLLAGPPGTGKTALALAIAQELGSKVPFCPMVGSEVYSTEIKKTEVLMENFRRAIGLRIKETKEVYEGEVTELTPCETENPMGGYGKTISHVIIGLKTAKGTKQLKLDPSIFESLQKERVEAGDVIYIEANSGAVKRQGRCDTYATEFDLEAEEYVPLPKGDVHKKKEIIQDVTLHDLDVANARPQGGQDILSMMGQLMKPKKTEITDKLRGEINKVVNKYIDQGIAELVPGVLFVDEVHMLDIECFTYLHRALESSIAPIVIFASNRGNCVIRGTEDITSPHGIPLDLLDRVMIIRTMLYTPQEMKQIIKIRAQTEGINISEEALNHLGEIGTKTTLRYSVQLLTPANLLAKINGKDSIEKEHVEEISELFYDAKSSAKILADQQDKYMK
T4 sequence (Q9Y230 whole entry, chain 2 of 2, the tested form may be a part): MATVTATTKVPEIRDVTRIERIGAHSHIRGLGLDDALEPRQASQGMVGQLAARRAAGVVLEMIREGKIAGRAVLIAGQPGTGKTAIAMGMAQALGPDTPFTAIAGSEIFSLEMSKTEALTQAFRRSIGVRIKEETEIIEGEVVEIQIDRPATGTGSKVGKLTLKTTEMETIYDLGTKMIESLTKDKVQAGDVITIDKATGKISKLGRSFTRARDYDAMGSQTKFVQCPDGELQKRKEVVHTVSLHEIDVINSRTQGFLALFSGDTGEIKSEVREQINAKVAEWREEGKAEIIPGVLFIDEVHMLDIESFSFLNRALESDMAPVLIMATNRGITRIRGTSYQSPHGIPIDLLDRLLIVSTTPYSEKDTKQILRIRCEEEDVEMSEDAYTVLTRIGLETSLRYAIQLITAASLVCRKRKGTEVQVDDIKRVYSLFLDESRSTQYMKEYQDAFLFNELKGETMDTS

[6] = TEAD1 incubated with 30 µM binder 18 h at 30 °C, 15 °C

Molecule: CCCC[C@@H]1NC(=O)[C@H](CCCCN)NC(=O)[C@H](CCCNC(=N)N)NC(=O)[C@H](CC(C)C)NC(=O)[C@@H](NC(=O)[C@H](Cc2cccc(Cl)c2)NC(=O)[C@@H]2CCCN2C(=O)[C@@H](NC(C)=O)C(C)C)CCSSC[C@@H](C(=O)N[C@@H](CCCCN)C(=O)N2CCC[C@H]2C(=O)N2CCC[C@H]2C(=O)N[C@@H](CCC(=O)O)C(N)=O)NC(=O)[C@H](Cc2ccccc2)NC(=O)[C@H](CO)NC(=O)[C@H](C)NC(=O)[C@@H]2CCCN2C1=O [Peptide 17]
Effect on YAP(2-268):TEAD1 interaction compared with TEAD1 apo-form [1]: significantly suppressed the interaction

Interaction with immobilized DKC1(1-514) ([2]; compared with RuvBL1(1-456)/RuvBL2(1-463), partly data not shown): Identical results
Molecule: RuvBL1_D302N, RuvBL2_D299N: ATP hydrolysis RuvBL1/RuvBL2 mutant

Effect on DKC1:RuvBL1/RuvBL2 interaction ([2]; saturating concentrations, data not shown): Identical results
Molecule: Nc1ncnc2c1ncn2[C@@H]1O[C@H](CO[P@](=O)(O)O[P@](=O)(O)O[P@@](=O)(O)S)[C@@H](O)[C@H]1O [ATPγS]

ka ± SD of YAP(2-268):TEAD1 interaction in presence of binder [1, 6]: 1.2e+06 ± 120000 M⁻¹ s⁻¹
kd ± SD of YAP(2-268):TEAD1 interaction in presence of binder [1, 6]: 0.34 ± 0.074 s⁻¹
Effect on YAP(2-268):TEAD1 interaction compared with TEAD1 apo-form [1]: decrease in affinity
IC50 [3]: 340 nM
Kd [4]: 1400 nM
Molecule: O=C(CCl)c1ccccc1Nc1cccc(C(F)(F)F)c1 [TED-347]

Kd [5]: 23 nM
koff [5]: 0.015 s⁻¹
kon [5]: 650000 M⁻¹ s⁻¹
B1: Cellular biotinylated H/ACA ribonucleoprotein complex subunit Dyskerin pseudouridine synthase 1, His6-DKC1(1-514)-AviTag (natural protein, UniProt O60832 1-514, looked up)
chain: MADAEVIILPKKHKKKKERKSLPEEDVAEIQHAEEFLIKPESKVAKLDTSQWPLLLKNFDKLNVRTTHYTPLACGSNPLKREIGDYIRTGFINLDKPSNPSSHEVVAWIRRILRVEKTGHSGTLDPKVTGCLIVCIERATRLVKSQQSAGKEYVGIVRLHNAIEGGTQLSRALETLTGALFQRPPLIAAVKRQLRVRTIYESKMIEYDPERRLGIFWVSCEAGTYIRTLCVHLGLLLGVGGQMQELRRVRSGVMSEKDHMVTMHDVLDAQWLYDNHKDESYLRRVVYPLEKLLTSHKRLVMKDSAVNAICYGAKIMLPGVLRYEDGIEVNQEIVVITTKGEAICMAIALMTTAVISTCDHGIVAKIKRVIMERDTYPRKWGLGPKASQKKLMIKQGLLDKHGKPTDSTPATWKQEYVDYSESAKKEVVAEVVKAPQVVAEAAKTAKRKRESESESDETPPAAPQLIKKEKKKSKKDKKAKAGLESGAEPGDGDSDTTKKKKKKKKAKEVELVSE
modifications: biotin on the AviTag (BirA, in the cells)
notes: Dyskerin pseudouridine synthase 1 (DKC1), residues 1-514; Captured from the lysate on a neutravidin-coated CM5 chip by the biotinylated AviTag; also called DCK1(1-514); DCK1(1-541); source: E. coli BL21(DE3), co-expressed with BirA-FLAG and D-biotin, in cleared lysate (desalted, not purified); not shown: His6, N-terminal, kept; AviTag, C-terminal, kept
